# Reference: the NIST ThermoML archive (doi:10.1021/je200178b)
# ± gives the expanded uncertainty stated by the source.
# Assay: mean ionic activity coefficient (dimensionless); mn = molality of the nth substance listed, in mol/kg
# Settings: 298.15 K, 101 kPa, Liquid, ion-selective electrode
compound,measurement,setting,value
[F-].[Rb+] [rubidium fluoride (RbF)] + O,mean ionic activity coefficient,m1 = 0.0046,0.9305 ± 0.001
same,mean ionic activity coefficient,m1 = 0.0096,0.9047 ± 0.0009
same,mean ionic activity coefficient,m1 = 0.014,0.8889 ± 0.0006
same,mean ionic activity coefficient,m1 = 0.0187,0.8759 ± 0.0005
same,mean ionic activity coefficient,m1 = 0.0232,0.8654 ± 0.0004
same,mean ionic activity coefficient,m1 = 0.0275,0.8567 ± 0.0004
same,mean ionic activity coefficient,m1 = 0.0321,0.8486 ± 0.0003
same,mean ionic activity coefficient,m1 = 0.0367,0.8414 ± 0.0003
same,mean ionic activity coefficient,m1 = 0.0411,0.8351 ± 0.0003
same,mean ionic activity coefficient,m1 = 0.0506,0.8235 ± 0.0002
same,mean ionic activity coefficient,m1 = 0.0596,0.8141 ± 0.0002
same,mean ionic activity coefficient,m1 = 0.0685,0.806 ± 0.0002
same,mean ionic activity coefficient,m1 = 0.0772,0.799 ± 0.0002
same,mean ionic activity coefficient,m1 = 0.0915,0.7891 ± 0.0001
same,mean ionic activity coefficient,m1 = 0.1058,0.7806 ± 0.0001
same,mean ionic activity coefficient,m1 = 0.1293,0.769 ± 0.0001
same,mean ionic activity coefficient,m1 = 0.1517,0.7599 ± 0.0001
same,mean ionic activity coefficient,m1 = 0.1747,0.7521 ± 0.0001
same,mean ionic activity coefficient,m1 = 0.2107,0.7421 ± 0.0001
same,mean ionic activity coefficient,m1 = 0.2467,0.7342 ± 0.0001
same,mean ionic activity coefficient,m1 = 0.2819,0.7278 ± 0.0001
same,mean ionic activity coefficient,m1 = 0.3349,0.7202 ± 0.0001
same,mean ionic activity coefficient,m1 = 0.3859,0.7146 ± 0.0001
same,mean ionic activity coefficient,m1 = 0.4584,0.7086 ± 0.0001
same,mean ionic activity coefficient,m1 = 0.5332,0.7043 ± 0.0001
same,mean ionic activity coefficient,m1 = 0.6214,0.701 ± 0.0001
[Cs+].[F-] [cesium fluoride (CsF)] + O,mean ionic activity coefficient,m1 = 0.0043,0.9338 ± 0.0011
same,mean ionic activity coefficient,m1 = 0.0085,0.9112 ± 0.0009
same,mean ionic activity coefficient,m1 = 0.0128,0.8953 ± 0.0007
same,mean ionic activity coefficient,m1 = 0.0172,0.8824 ± 0.0005
same,mean ionic activity coefficient,m1 = 0.0215,0.872 ± 0.0005
same,mean ionic activity coefficient,m1 = 0.0258,0.863 ± 0.0004
same,mean ionic activity coefficient,m1 = 0.0302,0.8551 ± 0.0003
same,mean ionic activity coefficient,m1 = 0.0346,0.848 ± 0.0003
same,mean ionic activity coefficient,m1 = 0.0391,0.8416 ± 0.0003
same,mean ionic activity coefficient,m1 = 0.0437,0.8355 ± 0.0002
same,mean ionic activity coefficient,m1 = 0.0523,0.8257 ± 0.0002
same,mean ionic activity coefficient,m1 = 0.0608,0.8173 ± 0.0002
same,mean ionic activity coefficient,m1 = 0.0698,0.8096 ± 0.0002
same,mean ionic activity coefficient,m1 = 0.0787,0.8028 ± 0.0002
same,mean ionic activity coefficient,m1 = 0.0875,0.7968 ± 0.0001
same,mean ionic activity coefficient,m1 = 0.1003,0.7892 ± 0.0001
same,mean ionic activity coefficient,m1 = 0.1138,0.7822 ± 0.0001
same,mean ionic activity coefficient,m1 = 0.1268,0.7762 ± 0.0001
same,mean ionic activity coefficient,m1 = 0.1455,0.7689 ± 0.0001
same,mean ionic activity coefficient,m1 = 0.1632,0.7629 ± 0.0001
same,mean ionic activity coefficient,m1 = 0.1817,0.7575 ± 0.0001
same,mean ionic activity coefficient,m1 = 0.2045,0.7517 ± 0.0001
same,mean ionic activity coefficient,m1 = 0.226,0.7471 ± 0.0001
same,mean ionic activity coefficient,m1 = 0.2524,0.7423 ± 0.0001
same,mean ionic activity coefficient,m1 = 0.2823,0.7377 ± 0.0001
same,mean ionic activity coefficient,m1 = 0.3166,0.7335 ± 0.0001
same,mean ionic activity coefficient,m1 = 0.3589,0.7294 ± 0.0001
same,mean ionic activity coefficient,m1 = 0.4086,0.7259 ± 0.0001
same,mean ionic activity coefficient,m1 = 0.4762,0.7227 ± 0.0001
